Data from US9585871B2, “Method for treating and curing leishmaniosis using fexinidazole” (Merial Limited, priority 2013, dated 2017).
Values joined by “and” are separate entries in the source; they are usually repeats but may differ in a detail not shown here. Identical values can stand only once.

Tests used:
Format in all cases: in vivo
L. infantum [1] = assay: Clinical study in dogs infected with L. infantum: Overall Biological Score; set-up: key: additive score of severity of hematology/chemistry changes; conditions: Glucantime 100 mg/kg dNMA SC or Fexinidazole 60 mg/kg PO once daily Days 0-27
Method: (§1) In a clinical study, dogs infected with L. infantum were treated with meglumine antimoniate (GLUCANTIME®, Merial) as a positive control, or FEX (Table 5). Eight blocks of two animals were formed based antibody titers and biological scores. Six dogs in each group were naturally infected by housing them in an endemic area for two years and two dogs in each group were artificially infected by intravenous administration of a known quantity of parasites recovered from the spleen of an infected dog.
(§2) The first group (FEX) was compared to the second group, which was treated with 27 mg/kg GLUCANTIME (meglumine antimoniate, or 100 mg/kg of dNMA) “GLU”), over 28 days.
(§3) Variables. The Clinical Score is an additive score of various clinical signs (body condition, lymphadenopathy, splenomegaly, appetite, behavior, mucous membrane color, dermatopathology, ocular signs, digestive signs, arthropathy) evaluated before treatment and on Days 7, 14, 21, 28, 57, 184, 219, 254, 282, 310, 345, 400 and 436. The Overall Biological Score is an additive score based on the severity of changes in hematology/chemistry values (creatinine, urine protein/creatinine, Hct, globulin, ALAT), evaluated pretreatment and on Days 28, 57, and 181. The L. infantum immunofluorescent antibody titers (IFAT) were determined from samples collected before treatment and on Days 28, 57, and 181. Finally, quantitative PCR (qPCR) for L. infantum was conducted on spleen aspirates collected before treatment and on Days 28, 57, 142, 184, and 373.

L. infantum [2] = assay: Clinical study in dogs infected with L. infantum: qPCR on spleen aspirates; conditions: spleen aspirate, Glucantime 100 mg/kg dNMA SC or Fexinidazole 60 mg/kg PO once daily Days 0-27
Method: as §1, §2, §3

L. infantum [3] = assay: Clinical study in dogs infected with L. infantum: Clinical Score; set-up: key: additive score of clinical signs (body condition, lymphadenopathy, etc.); conditions: Glucantime 100 mg/kg dNMA SC or Fexinidazole 60 mg/kg PO once daily Days 0-27
Method: as §1, §2, §3

L. infantum [4] = assay: Clinical study in dogs infected with L. infantum: overall outcome (cure, relapse, removal of animals)
Method: as §1
The first group (FEX) was compared to the second group, which was treated with 27 mg/kg GLUCANTIME (meglumine antimoniate, or 100 mg/kg of dNMA) “GLU”), over 28 days. […]

[5] = Day −7 (before treatment), individual dogs

meglumine antimoniate [Glucantime]
Overall Biological Score (L. infantum [1]; Day 28, individual dogs): 2 (2×) and 1 and 4 and 3 (2×) and 2^1
Overall Biological Score, group average (L. infantum [1]; Day 28): 2.4
Overall Biological Score (L. infantum [1]; Day 57, individual dogs): 1 (4×) and 4 (2×)
Overall Biological Score, group average (L. infantum [1]; Day 57, Group 1 includes D28 data of Block 3 dog carried forward): 2.0^3
Overall Biological Score (L. infantum [1]; Day 181, individual dogs): 3 (2×) and 2 (2×) and 0 and 6
Overall Biological Score, group average (L. infantum [1]; Day 181, Group 1 includes D28 data of Block 3 dog carried forward): 2.7
Overall Biological Score (L. infantum [1]; Day −14 (pretreatment), individual dogs): 6 and 1 (2×) and 3 (2×) and 7 and 2 (2×)
Overall Biological Score, group average (L. infantum [1]; Day −14 (pretreatment)): 3.1
qPCR for L. infantum (L. infantum [2]; Day 28, individual dogs): 4.04 log copies/mL and 3.73 log copies/mL and 5.93 log copies/mL and 5.63^3 log copies/mL and BLOQ^1 (BLOQ = Below Level of Quantification = < log 3.64 copies/mL spleen aspirate) and 5.77 log copies/mL and 6.40^2 log copies/mL and 5.81 log copies/mL
qPCR for L. infantum (L. infantum [2]; Day 57, individual dogs): BLOQ (BLOQ = Below Level of Quantification = < log 3.64 copies/mL spleen aspirate) (3×) and 4.93 log copies/mL and 5.14 log copies/mL and 4.78 log copies/mL
qPCR for L. infantum (L. infantum [2]; Day 142, individual dogs): BLOQ (BLOQ = Below Level of Quantification = < log 3.64 copies/mL spleen aspirate) (3×) and 4.73 log copies/mL and 5.57 log copies/mL and 3.94 log copies/mL
qPCR for L. infantum (L. infantum [2]; Day 184, individual dogs): BLOQ (BLOQ = Below Level of Quantification = < log 3.64 copies/mL spleen aspirate) (2×) and 3.97 log copies/mL and 5.53 log copies/mL and 7.01 log copies/mL and 5.62 log copies/mL
qPCR for L. infantum (L. infantum [2]; Day 373, individual dogs): BLOQ (BLOQ = Below Level of Quantification = < log 3.64 copies/mL spleen aspirate) and 5.23 log copies/mL and 3.83 log copies/mL
qPCR for L. infantum (L. infantum [2]; [5]): 5.81 log copies/mL and 4.38 log copies/mL and 6.40 log copies/mL and 5.10 log copies/mL and 5.12 log copies/mL and 6.87 log copies/mL and 6.17 log copies/mL and 6.70 log copies/mL
Clinical Score, group average (L. infantum [3]; Day 7): 1.3
Clinical Score, group average (L. infantum [3]; Day 14): 1.1
Clinical Score, group average (L. infantum [3]; Day 21): 2.1
Clinical Score (L. infantum [3]; Day 28, individual dogs): 0
Clinical Score, group average (L. infantum [3]; Day 28, Group 1 includes D21 data of Block 3 dog carried forward): 1.33
Clinical Score (L. infantum [3]; Day 57, individual dogs): 0
Clinical Score, group average (L. infantum [3]; Day 57, Group 1 includes D21 data of Block 3 dog carried forward): 1.33
Clinical Score (L. infantum [3]; Day 184, individual dogs): 0
Clinical Score, group average (L. infantum [3]; Day 184): 0.0
Clinical Score (L. infantum [3]; Day 219, individual dogs): 0
Clinical Score, group average (L. infantum [3]; Day 219): 0.0
Clinical Score (L. infantum [3]; Day 254, individual dogs): 3 and 0 (2×)
Clinical Score, group average (L. infantum [3]; Day 254): 1.0
Clinical Score (L. infantum [3]; Day 282, individual dogs): 3 and 0 (2×)
Clinical Score, group average (L. infantum [3]; Day 282): 1.0
Clinical Score (L. infantum [3]; Day 310, individual dogs): 2 and 0 (2×)
Clinical Score, group average (L. infantum [3]; Day 310): 0.7
Clinical Score (L. infantum [3]; Day 345, individual dogs): 0
Clinical Score, group average (L. infantum [3]; Day 345): 0.0
Clinical Score (L. infantum [3]; Day 400, individual dogs): 1 and 0 (2×)
Clinical Score, group average (L. infantum [3]; Day 400): 0.3
Clinical Score (L. infantum [3]; Day 436, individual dogs): 4 and 0 (2×)
Clinical Score, group average (L. infantum [3]; Day 436): 1.3
Clinical Score (L. infantum [3]; [5]): 2 (3×) and 0 (4×) and 3
Clinical Score, group average (L. infantum [3]; Day −7 (before treatment)): 1.1
removal of animal due to deterioration (L. infantum [4]; Group 1 Block 3 dog, Glucantime 100 mg/kg dNMA SC once daily Days 0-27): ^1Dog Group 1 Block 3 removed on Day 28 due to continued deterioration
removal of animal due to toxicity (L. infantum [4]; Group 1 Block 8 dog, Glucantime 100 mg/kg dNMA SC once daily): ^2Dog Group 1 Block 8 removed on Day 20 due to GLUCANTIME toxicity
removal of animals due to lack of efficacy (L. infantum [4]; Group 1 Blocks 2, 4, 7 dogs, Glucantime 100 mg/kg dNMA SC once daily Days 0-27): ^3Dogs Group 1 Blocks 2, 4, 7 removed after Day 184 due to lack of GLUCANTIME efficacy
